Data set [1] concerns Staphylococcus aureus. In words: Bactericidal activity against methicillin-resistant Staphylococcus aureus measured after 24 hrs by CLSI based broth microdilution method. The data set is classed as functional. On the technique in general: In broth dilution the organism is exposed to a series of concentrations in liquid medium.
Data set [2] concerns Enterococcus faecalis. In words: Bactericidal activity against vancomycin-resistant Enterococcus faecalis ATCC51299 measured after 24 hrs by CLSI based broth microdilution method. The data set is classed as functional.
The subject of data set [3] is Enterococcus faecalis. In words: Antibacterial activity against vancomycin-resistant Enterococcus faecalis ATCC51299 measured after 24 hrs by CLSI based broth microdilution method. Format: functional.
Data set [4] relates to Staphylococcus aureus. In words: Antibacterial activity against methicillin-resistant Staphylococcus aureus measured after 24 hrs by CLSI based broth microdilution method. The data set is classed as functional.
In data set [5] the test system is Staphylococcus aureus. In words: Antibacterial activity against methicillin resistant Staphylococcus aureus infected in female Kunming mouse model of skin infection assessed as reduction in inflammatory cell infiltration at 8 mg/kg administered daily pre-infected for 4 hrs followed by compound administration for 7 days. Format: functional, organism-based. The following applies: time 7.0 day.

The test system of data set [6] is Staphylococcus aureus. Description: Antibacterial activity against methicillin resistant Staphylococcus aureus infected in female Kunming mouse model of skin infection assessed as suppression of purulent secretion at 8 mg/kg administered daily pre-infected for 4 hrs followed by compound administration for 7 days. The data set is classed as functional, organism-based. Particulars: time 7.0 day.

A short description of data set [7]: Toxicity in Kunming mouse assessed as morphological abnormalities at 8 mg/kg administered daily and measured after 7 days. The data set is classed as organism-based. Particulars: in vivo, 168 h, time 7 day.
Data set [8] deals with Staphylococcus aureus. Description: Antibacterial activity against methicillin resistant Staphylococcus aureus infected in female Kunming mouse model of skin infection assessed as reduction in bacterial load of wound at 8 mg/kg administered daily pre-infected for 4 hrs followed by compound administration for 7 days. The following applies: time 7.0 day. Format: functional, organism-based.

Data set [9] relates to Staphylococcus aureus. In words: Bactericidal activity against methicillin-resistant Staphylococcus aureus assessed as reduction in number of bacteria at 2 times MIC measured within 1 hr by time-kill assay. The data set is classed as functional, organism-based.
Data set [10] deals with Staphylococcus aureus. In words: Antibacterial activity against methicillin resistant Staphylococcus aureus infected in female Kunming mouse model of skin infection assessed as increase in neovascularization at 8 mg/kg administered daily pre-infected for 4 hrs followed by compound administration for 7 days. Format: functional, organism-based. The following applies: time 7.0 day.

In data set [11] the test system is Staphylococcus aureus. In words: Antibacterial activity against methicillin resistant Staphylococcus aureus infected in female Kunming mouse model of skin infection assessed as reduction in wound size at 8 mg/kg administered daily pre-infected for 4 hrs followed by compound administration for 7 days. Format: functional, organism-based. Particulars: time 7.0 day.

Data set [12] deals with Enterococcus faecalis. Description: Bactericidal activity against vancomycin-resistant Enterococcus faecalis ATCC51299 assessed as reduction in number of bacteria at 2 times MIC measured within 1 hr by time-kill assay. Format: functional, organism-based.
Data set [13] concerns Enterococcus faecalis. In words: Drug resistance, ratio of MIC for vancomycin-resistant Enterococcus faecalis ATCC51299 after 20 days exposure to MIC for vancomycin-resistant Enterococcus faecalis ATCC51299 during first exposure. The data set is classed as functional. The following applies: time 20 day.

These results are taken from ChEMBL document CHEMBL6071135, “New resorcylic acid derivatives of Lysimachia tengyuehensis against MRSA and VRE by interfering with bacterial metabolic imbalance” (Eur J Med Chem, 2024).

As usually defined, the MBC is the smallest concentration meeting the test's criterion for killing. Broadly, the MIC is the least concentration at which growth counts as inhibited. Lower therefore signals greater potency.

Converted amounts (≈) assume the structure as drawn. The source made the active and inactive calls.

As to `CCCCCCCCCCCCCCc1cc(O)cc(O)c1C(=O)O`, the minimum bactericidal concentration (MBC) is 4 mg/L (≈ 11.4 µM) in the data set on Staphylococcus aureus [1] and 8 mg/L (≈ 22.8 µM) with Enterococcus faecalis [2]. The minimal inhibitory concentration (MIC) with Enterococcus faecalis [3] and against Staphylococcus aureus [4] was 4 mg/L (≈ 11.4 µM) in each case.

With `CCCCCCCCCCCc1cc(O)cc(O)c1C(=O)O`, the MBC in the data set on Staphylococcus aureus [1] and in the data set on Enterococcus faecalis [2] was 8 mg/L (≈ 25.9 µM) in each case. The MIC against Enterococcus faecalis [3] and with Staphylococcus aureus [4] was 8 mg/L (≈ 25.9 µM) throughout.

For the compound `CN[C@H](CC(C)C)C(=O)N[C@H]1C(=O)N[C@@H](CC(N)=O)C(=O)N[C@H]2C(=O)N[C@H]3C(=O)N[C@H](C(=O)N[C@H](C(=O)O)c4cc(O)cc(O)c4-c4cc3ccc4O)[C@H](O)c3ccc(c(Cl)c3)Oc3cc2cc(c3O[C@@H]2O[C@H](CO)[C@@H](O)[C@H](O)[C@H]2O[C@H]2C[C@](C)(N)[C@H](O)[C@H](C)O2)Oc2ccc(cc2Cl)[C@H]1O` [VANCOMYCIN], the outcome in the data set on Staphylococcus aureus [5], with Staphylococcus aureus [6], in the data set with Staphylococcus aureus [8], with Staphylococcus aureus [10] and in the data set on Staphylococcus aureus [11] was Active. Further, in data set [7], the Activity result is recorded as “Non-Toxic”. Further, the outcome in the data set on Staphylococcus aureus [9] was inactive.

Consider `CCCCCCCCCCCCc1cc(O)cc(O)c1C(=O)O`, for which the MBC was determined as 8 mg/L (≈ 24.8 µM) with Staphylococcus aureus [1] and 4 mg/L (≈ 12.4 µM) against Enterococcus faecalis [2]. Also, the figures for the MIC in the data set with Enterococcus faecalis [3] and against Staphylococcus aureus [4] were 4 mg/L (≈ 12.4 µM) and 8 mg/L (≈ 24.8 µM), respectively.

`COc1cccc(OC)c1C(=O)N[C@@H]1C(=O)N2[C@@H]1SC(C)(C)[C@@H]2C(=O)O` [METHICILLIN] had a minimal inhibitory concentration (MIC) with Staphylococcus aureus [4] above 128 mg/L.

In the case of `CCCCCCCCCCCCCc1cc(O)cc(O)c1C(=O)O`, the values for the MBC in the data set on Staphylococcus aureus [1] and against Enterococcus faecalis [2] were 4 mg/L (≈ 11.9 µM) and 8 mg/L (≈ 23.8 µM), respectively. For the same compound, the MIC amounted to 8 mg/L (≈ 23.8 µM) against Enterococcus faecalis [3] and 4 mg/L (≈ 11.9 µM) in the data set with Staphylococcus aureus [4].

As for `CCCCCCCCCCCCCc1cc(O)cc(O)c1`, the minimum bactericidal concentration (MBC) in the data set on Staphylococcus aureus [1] and with Enterococcus faecalis [2] was 4 mg/L (≈ 13.7 µM) in each case. The MIC against Enterococcus faecalis [3] and against Staphylococcus aureus [4] was 4 mg/L (≈ 13.7 µM) in each case.

`CCCCCCCCCCCCc1cc(O)cc(O)c1`: the minimal bactericidal concentration (MBC) in the data set on Staphylococcus aureus [1] is 8 mg/L (≈ 28.7 µM); against Enterococcus faecalis [2], 4 mg/L (≈ 14.4 µM). The results for the minimal inhibitory concentration (MIC) against Enterococcus faecalis [3] and in the data set with Staphylococcus aureus [4] were 4 mg/L (≈ 14.4 µM) and 8 mg/L (≈ 28.7 µM), respectively.

Turning to `CC1(C)S[C@@H]2[C@H](NC(=O)[C@H](N)c3ccccc3)C(=O)N2[C@H]1C(=O)O` [AMPICILLIN], the result with Enterococcus faecalis [12] was inactive. In addition, the “fold change (FC)” value in the data set on Enterococcus faecalis [13] was determined as 4. Also, the MIC against Enterococcus faecalis [3] was 2 mg/L (≈ 5.72 µM).
